In brackets after ≈: the same amount, converted by molar mass. Square brackets hold non-standard residues; d marks the D form. Peptide text beside a SMILES is read from it. Aib = CC(C)(N)C(=O)O
Columns and labels:
physchem = assay type: physicochemical
[1] = assay type: physicochemical; conditions: buffer, 168 h
Description: The chemical stability is expressed as “% remaining peptide”.

[2] = system: blood glucose of diabetic db/db mice; assay: Glucose lowering in female diabetic dbdb-mice; assay type: in vivo; conditions: 100 μg/kg s.c.
Procedure: Female diabetic dbdb-mice (BKS.Cg− +Leprdb/+Leprdb/OlaHsd) 10 weeks of age at study start were used. Mice were habituated to feeding and housing conditions for at least 2 weeks. 7 days prior to study start, HbA1c were determined to allocate mice to groups, aiming to spread low, medium and high HbA1c-values and in consequence the group-means (n=8), as equally as possible. On the day of study, food was removed, directly before sampling for baseline glucose assessment (t=0 min) Immediately afterwards, compounds or vehicle (phosphor buffered saline, PBS) were administered subcutaneously, 100 μg/kg, 10 ml/kg. Afterwards, blood samples were drawn by tail tip incision at 15, 30, 60, 90, 120, 150, 180, 240, 360, 480 min and 24 h. Food was re-offered after the 480 min-sampling. Data were analysed by 2-W-ANOVA on repeated measurements, followed by Dunnett's test as post-hoc assessment, level of significance p<0.05.

in vivo = conditions: mouse, sc, 1 mg/kg
Procedure: Mice were dosed 1 mg/kg subcutaneously (s.c.). The mice were sacrificed and blood samples were collected after 0.25, 0.5, 1, 2, 4, 8, 16 and 24 hours post application. Plasma samples were analyzed after protein precipitation via liquid chromatography mass spectrometry (LC/MS). PK parameters and half-life were calculated using WinonLin Version 5.2.1 (non-compartment model).

CC[C@H](C)[C@H](NC(=O)[C@H](Cc1ccccc1)NC(=O)[C@H](CC(C)C)NC(=O)[C@H](CCCNC(=N)N)NC(=O)[C@@H](NC(=O)[C@H](C)NC(=O)[C@H](CCC(=O)O)NC(=O)[C@H](CCCCN)NC(=O)[C@H](CCC(=O)O)NC(=O)[C@H](CC(C)C)NC(=O)[C@H](CC(C)C)NC(=O)[C@H](CCCCN)NC(=O)[C@H](CO)NC(=O)[C@H](CC(C)C)NC(=O)[C@H](CC(=O)O)NC(=O)[C@H](CO)NC(=O)[C@@H](NC(=O)[C@H](Cc1ccccc1)NC(=O)[C@@H](NC(=O)CNC(=O)[C@H](CCC(=O)O)NC(=O)C(C)(C)NC(=O)[C@@H](N)Cc1ccc(O)cc1)[C@@H](C)O)[C@@H](C)O)C(C)C)C(=O)N[C@@H](CCC(=O)O)C(=O)N[C@@H](Cc1c[nH]c2ccccc12)C(=O)N[C@@H](CC(C)C)C(=O)N[C@@H](CCCCN)C(=O)N[C@@H](C)C(=O)NCC(=O)NCC(=O)N1CCC[C@H]1C(=O)N[C@@H](CO)C(=O)N[C@@H](CO)C(=O)NCC(=O)N[C@@H](C)C(=O)N1CCC[C@H]1C(=O)N1CCC[C@H]1C(=O)N1CCC[C@H]1C(=O)N[C@@H](CO)C(N)=O [SEQ ID NO: 8, Y-Aib-EGTFTSDLSKLLEKEAVRLFIEWLKAGGPSSGAPPPS-NH2] (H-Y[Aib]EGTFTSDLSKLLEKEAVRLFIEWLKAGGPSSGAPPPS-NH2)
solubility at 2 h (physchem; pH 4.5): 320 µg/mL (≈ 76.9 µM)
solubility at 2 h (physchem; pH 7.4): 270 µg/mL (≈ 64.8 µM)
Stability (pH 4.5), % remaining peptide ([1]; pH 4.5): 100%
Stability (pH 7.4), % remaining peptide [1]: 100%
maximal effect, glucose reduction ([2]; at t=30 min): ~13 mmol/L
reduction of glucose compared to vehicle control ([2]; from t=30 min to 24 h, p<0.05): statistical significant reduction of glucose
Cmax (in vivo): 2980 ng/mL
half-life (in vivo): 1.9 h

CC[C@H](C)[C@H](NC(=O)[C@H](Cc1ccccc1)NC(=O)[C@H](CC(C)C)NC(=O)[C@H](CCCNC(=N)N)NC(=O)[C@@H](NC(=O)[C@H](C)NC(=O)[C@H](CCC(=O)O)NC(=O)[C@H](CCC(=O)O)NC(=O)[C@H](CCC(=O)O)NC(=O)[C@H](CC(C)C)NC(=O)[C@H](CC(C)C)NC(=O)[C@H](CCCCN)NC(=O)[C@H](CO)NC(=O)[C@H](CC(C)C)NC(=O)[C@H](CC(=O)O)NC(=O)[C@H](CO)NC(=O)[C@@H](NC(=O)[C@H](Cc1ccccc1)NC(=O)[C@@H](NC(=O)CNC(=O)[C@H](CCC(=O)O)NC(=O)C(C)(C)NC(=O)[C@@H](N)Cc1ccc(O)cc1)[C@@H](C)O)[C@@H](C)O)C(C)C)C(=O)N[C@@H](CCC(=O)O)C(=O)N[C@@H](Cc1c[nH]c2ccccc12)C(=O)N[C@@H](CC(C)C)C(=O)N[C@@H](CCCCN)C(=O)N[C@@H](C)C(=O)NCC(=O)NCC(=O)N1CCC[C@H]1C(=O)N[C@@H](CO)C(=O)N[C@@H](CO)C(=O)NCC(=O)N[C@@H](C)C(=O)N1CCC[C@H]1C(=O)N1CCC[C@H]1C(=O)N1CCC[C@H]1C(=O)N[C@@H](CO)C(N)=O [SEQ ID NO: 10, Y-Aib-EGTFTSDLSKLLEEEAVRLFIEWLKAGGPSSGAPPPS-NH2] (H-Y[Aib]EGTFTSDLSKLLEEEAVRLFIEWLKAGGPSSGAPPPS-NH2)
solubility at 2 h (physchem; pH 7.4): 990 µg/mL (≈ 238 µM)
Stability (pH 7.4), % remaining peptide [1]: 100%

From patent publication US9750788B2 (priority 2013, dated 2017)
